Source: US20220354811A1, “METHODS AND COMPOSITIONS FOR MODULATING MACROPHAGES POLARIZATION” (INSERM (INSTITUT NATIONAL DE LA SANTÉ ET DE LA RECHERCHE …, priority 2019, published 2022)

Experiments:
human primary monocytes = assay: CSF-1-induced monocyte differentiation into macrophages (flow cytometry, CD71/CD163 and CD16/CD163 double positive cells); assay type: cell-based
Text: FIG. 1. […] (A) Macrophagic differentiation of monocytes from 3 different healthy donors was examined by 3-color flow cytometric analysis. The results are expressed as percentage of CD71/CD163 or CD16/CD163 double positive cells and represent the mean±SD of 3 independent experiments performed in duplicate. (B) Cell death from 3 different healthy donors was examined by flow cytometry analysis. The results are expressed as percentage of AnnexinV/DAPI double positive cells and represent the mean±SD of 3 independent experiments performed in duplicate. n.s. denotes not statistically significant according to a paired student t test. *P<0.05, **P<0.01, ***P<0.001 according to a paired student t test (versus d2).
FIG. 2. […] Macrophagic differentiation of monocytes from 3 different healthy donors was examined by 3-color flow cytometric analysis. The results are expressed as percentage of CD71/CD163 or CD16/CD163 double positive cells and represent the mean±SD of 3 independent experiments performed in duplicate. n.s. denotes not statistically significant according to a paired student t test. *P<0.05, **P<0.01, ***P<0.001 according to a paired student t test (versus d2).
Human peripheral […] were obtained from healthy donors with informed consent following the Declaration of Helsinki according to recommendations of an independent scientific review board. The project has been validated by The Etablissement Francais du Sang, the French national agency for blood collection (protocol N°ALM/PLER/FO/001). Blood samples were collected using ethylene diamine tetraacetic acid-containing tubes. Mononucleated cells were first isolated using Ficoll Hypaque (Eurobio, CMSMSL0101). Then, we used the autoMACS® Pro Separator (Miltenyi, France) to perform cell enrichment. An initial positive selection, which included antibody targeting CD14, was used for monocyte enrichment (Miltenyi, 130-050-201). Purified monocytes from human were grown in RPMI 1640 medium with glutamax-I (Life Technologies, 61870044) supplemented with 10% (vol/vol) foetal bovine serum (Life Technologies). Macrophage differentiation was induced by adding into the culture medium 100 ng/mL CSF-1 and was visualized using standard optics (20x/0.35 Ph1) equipped with an AxioCam ERc camera (Zeiss, France). Phase images of the cultures were recorded with the Zen 2 software (Zeiss).
To analyze the macrophagic differentiation of monocytes, the cells were washed with ice-cold phosphate buffered saline (PBS, Life Technologies, 14190169), incubated at 4° C. for 10 min in PBS/bovine serum albumin (BSA 0.5%, Dutscher, 871002) with anti-CD16, anti-CD71 and anti-CD163 or isotype controls (Miltenyi and BD Biosciences, catalog numbers were 130-113-396, 130-097-628 and 551374). Finally, the cells were washed and fixed in 2% paraformaldehyde (EMS, 15710). To perform macrophage polarization, purified monocytes were plated at 0.3×10^6 per mL in RPMI 1640 medium with glutamax-I supplemented with 10% (vol/vol) fetal bovine serum plus CSF-1 for 5+2 days to differentiate into M0 macrophages. 20 ng/mL IL-4 (Miltenyi, 130-094-117) was added after 5 days of differentiation for two days to polarize into M2-macrophages. […] Fluorescence was measured with a MACSQuant® Analyzer (Miltenyi, Paris, France). […] Fluorescence was measured with a MACSQuant® Analyzer (Miltenyi, Paris, France). […]

caspase 3 = target: T1, caspase 3 (Homo sapiens, UniProt P42574); assay: Caspase 3 activity in untreated monocytes (Ac-DEVD-AMC substrate); assay type: cell-based; parameters: endogenous in cells; host or cells: primary human peripheral blood monocytes (CD14-selected, healthy donors); conditions: all the concentrations tested, 1 day
T1 sequence (P42574 29-175 limits assumed): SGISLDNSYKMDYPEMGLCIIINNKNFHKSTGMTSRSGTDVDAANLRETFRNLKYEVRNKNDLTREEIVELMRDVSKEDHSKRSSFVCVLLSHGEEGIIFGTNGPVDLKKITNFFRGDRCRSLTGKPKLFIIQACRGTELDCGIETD
T1 sequence (P42574 176-277 limits assumed): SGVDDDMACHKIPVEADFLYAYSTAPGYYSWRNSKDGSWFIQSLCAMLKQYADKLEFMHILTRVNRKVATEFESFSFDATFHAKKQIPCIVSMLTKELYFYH
Description: FIG. 3. Both Q-VD-Oph and Emricasan hamper in the same way apoptosis in untreated monocytes. […] Measures of caspase-3 (DEVD-AMC) and caspase-8 (IETD-AMC) activities. The results are expressed as A.U./mg/min and represent the mean the mean±SD of 3 independent experiments performed in triplicate.
After stimulation, cells were lysed for 30 min at 4° C. in lysis buffer (50 mM HEPES pH 8, 150 mM NaCl, 20 mM EDTA, 1 mM PMSF, 10 μg/mL leupeptin, 10 μg/mL aprotinin and 0.2% Triton X-100) and lysates were cleared at 16 000 g for 15 min at 4° C. Each assay (in triplicate) was performed with 10 μg of protein prepared from control or stimulated cells. Briefly, cellular extracts were then incubated in a 96-well plate with 0.2 mM of DEVD-AMC (Caspase-3) or IETD-AMC (Caspase-8) as substrates for various times at 37° C. Caspase activity was measured either following emission at 460 nm (excitation at 390 nm) in the presence or not of 10 μM of DEVD-CHO or IETD-CHO. Enzyme activities were expressed in arbitrary units (A.U.) per min and per mg of proteins. The same protocol was used with 0.25 units of active recombinant caspase-8 (Enzo, ALX-201-062) or -3 (Enzo, ALX-201-059) in each triplicate.

SMILES | concentrations with strong inhibitory effect on macrophagic differentiation (human primary monocytes; CSF-1 2 days, Emricasan added at day 0, three different donors) [µM] | concentration range that efficiently inhibited monocyte differentiation (human primary monocytes; same-experiment comparison, added only one time, CSF-1 2 days) [µM] | caspase 3 activity in untreated monocytes (caspase 3) | concentration range of dose-dependent inhibition of macrophagic differentiation (human primary monocytes; added at day 0 only, inhibition weak compared to Emricasan) [µM] | concentrations with significant inhibitory effect on monocyte differentiation (human primary monocytes; only when added twice (day 0 and day 1), several donors) [µM] | concentration necessary to achieve inhibition identical to Emricasan (human primary monocytes; same-experiment comparison, 2 successive treatments (days 0 and 1)) [µM]
C[C@H](NC(=O)C(=O)Nc1ccccc1C(C)(C)C)C(=O)N[C@@H](CC(=O)O)C(=O)COc1c(F)c(F)cc(F)c1F [Emricasan, (S)-3-((S)-2-(2-((2-(tert-Butyl)phenyl)amino)-2-oxoacetamido)propanamido)-4-oxo-5-(2,3,5,6-tetrafluorophenoxy)pentanoic acid] | 1 to 2 | 1.5 to 2.5 | efficiently inhibited |  |  | 
CC(C)[C@H](NC(=O)c1ccc2ccccc2n1)C(=O)N[C@@H](CC(=O)O)C(=O)COc1c(F)cccc1F [Q-VD-OPh] |  |  | efficiently inhibited | 75 to 125 | 100 to 125 | 100
